Test results: paper PMC8659279, “Identification of a Novel Delta Opioid Receptor Agonist Chemotype with Potential Negative Allosteric Modulator Capabilities” (Molecules, 2021)
Where two headings read alike, the source gives them in different places.

Assays:
[1] = cited from earlier work
δOR [2] = biological target: T1, δOR (Homo sapiens, UniProt P41143); experiment: Radioligand binding assay with [3H]DPDPE
µOR [3] = biological target: T2, µOR (Homo sapiens, UniProt P35372); experiment: Radioligand binding assay with [3H]DAMGO; conditions: read-out: Affinity (pKi ± SEM) (converted)
T2 sequence (P35372 whole entry): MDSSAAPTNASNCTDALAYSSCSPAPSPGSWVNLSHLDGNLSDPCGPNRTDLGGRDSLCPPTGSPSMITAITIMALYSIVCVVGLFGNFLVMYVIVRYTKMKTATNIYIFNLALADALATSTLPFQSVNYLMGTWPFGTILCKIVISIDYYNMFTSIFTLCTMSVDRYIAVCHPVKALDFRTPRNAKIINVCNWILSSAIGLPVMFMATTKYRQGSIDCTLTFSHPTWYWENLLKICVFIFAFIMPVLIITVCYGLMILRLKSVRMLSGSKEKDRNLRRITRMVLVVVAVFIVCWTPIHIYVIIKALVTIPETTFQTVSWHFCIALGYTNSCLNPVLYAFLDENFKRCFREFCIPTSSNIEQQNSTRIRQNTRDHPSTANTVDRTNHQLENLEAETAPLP

κOR [4] = biological target: T3, κOR (Homo sapiens, UniProt P41145); experiment: Radioligand binding assay with [3H]U69,593; conditions: read-out: Affinity (pKi ± SEM) (converted)
T3 sequence (P41145 whole entry): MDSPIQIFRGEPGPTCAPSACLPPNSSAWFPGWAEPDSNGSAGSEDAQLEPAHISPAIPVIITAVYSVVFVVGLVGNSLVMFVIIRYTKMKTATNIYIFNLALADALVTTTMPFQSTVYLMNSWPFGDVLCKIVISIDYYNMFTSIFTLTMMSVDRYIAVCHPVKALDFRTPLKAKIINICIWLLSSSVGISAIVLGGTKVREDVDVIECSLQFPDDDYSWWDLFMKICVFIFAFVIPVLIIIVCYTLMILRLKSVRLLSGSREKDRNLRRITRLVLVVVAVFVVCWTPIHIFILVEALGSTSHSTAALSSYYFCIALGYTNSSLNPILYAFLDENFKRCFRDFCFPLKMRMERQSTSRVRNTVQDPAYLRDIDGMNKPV

δOR [5] = biological target: T4, δOR (Mus musculus, UniProt P32300); experiment: GloSensor cAMP inhibition assay (forskolin-induced cAMP) in HEK 293 cells; format: cell-based
T4 construct: FLAG; expressed in transfected cells; host or cells: HEK 293
T4 sequence (P32300 whole entry): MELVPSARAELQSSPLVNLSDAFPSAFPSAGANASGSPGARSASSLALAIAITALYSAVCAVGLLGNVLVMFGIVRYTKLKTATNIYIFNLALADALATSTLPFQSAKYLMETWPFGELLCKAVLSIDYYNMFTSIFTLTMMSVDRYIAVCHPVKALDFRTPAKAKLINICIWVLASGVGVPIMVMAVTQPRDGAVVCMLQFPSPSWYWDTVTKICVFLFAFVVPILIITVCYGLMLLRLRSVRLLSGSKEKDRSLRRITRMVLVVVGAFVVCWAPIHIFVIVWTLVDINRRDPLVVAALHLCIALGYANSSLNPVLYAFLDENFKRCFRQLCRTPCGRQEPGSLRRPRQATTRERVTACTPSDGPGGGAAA

µOR [6] = biological target: µOR (Mus musculus, UniProt P42866); experiment: as above; format: cell-based; conditions: read-out: cAMP Potency (pIC50 ± SEM) (converted)
Chain of µOR (Mus musculus, UniProt P42866) (P42866 whole entry): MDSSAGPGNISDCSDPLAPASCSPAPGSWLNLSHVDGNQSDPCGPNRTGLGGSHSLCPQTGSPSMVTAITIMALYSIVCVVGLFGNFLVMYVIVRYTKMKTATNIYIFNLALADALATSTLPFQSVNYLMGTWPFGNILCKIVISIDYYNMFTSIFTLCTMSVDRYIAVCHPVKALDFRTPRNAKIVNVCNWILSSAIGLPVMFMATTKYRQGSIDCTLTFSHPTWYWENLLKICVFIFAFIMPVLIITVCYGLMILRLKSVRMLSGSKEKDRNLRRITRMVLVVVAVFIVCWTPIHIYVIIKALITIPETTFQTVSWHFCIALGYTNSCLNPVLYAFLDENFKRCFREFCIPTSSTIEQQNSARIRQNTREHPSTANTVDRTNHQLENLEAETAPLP

κOR [7] = biological target: T3, κOR; experiment: GloSensor cAMP inhibition assay (forskolin-induced cAMP); format: cell-based; conditions: read-out: cAMP Potency (pIC50 ± SEM) (converted)
δOR [8] = biological target: T1, δOR; experiment: PathHunter β-arrestin 2 recruitment, CHO-human δOR cells; format: cell-based; conditions: read-out: β-ARR2 potency (pEC50) (converted)
δOR [9] = biological target: T1, δOR; experiment: PathHunter β-arrestin 1 recruitment, U2OS cells (also library screen); format: cell-based; conditions: read-out: β-ARR1 potency (pEC50) (converted)
δOR [10] = biological target: T4, δOR; experiment: Assessment of allosteric modulation of Leu-enkephalin in δOR glosensor cAMP assay; format: cell-based
δOR [11] = biological target: T1, δOR; design: method as in PMID 26507558, PMID 20850307, doi:10.1016/S0021-5198(19)49890-9; conditions: ref [14],[18],[19]; cited from earlier work
µOR [12] = biological target: T2, µOR; design: method as in PMID 27533032; conditions: ref [32]; read-out: affinity at the µOR; cited from earlier work
κOR [13] = biological target: T3, κOR; design: method as in PMID 28339199; conditions: ref [36]; read-out: affinity at the κOR; cited from earlier work
κOR [14] = biological target: T3, κOR; design: method as in PMID 28339199; conditions: ref [36]; read-out: potency at the κOR; cited from earlier work
[15] = Table 2, three or more independent trials, read-out: pIC50 ± SEM to inhibit cAMP signaling at δOR (converted)

T1 sequence (P41143 whole entry): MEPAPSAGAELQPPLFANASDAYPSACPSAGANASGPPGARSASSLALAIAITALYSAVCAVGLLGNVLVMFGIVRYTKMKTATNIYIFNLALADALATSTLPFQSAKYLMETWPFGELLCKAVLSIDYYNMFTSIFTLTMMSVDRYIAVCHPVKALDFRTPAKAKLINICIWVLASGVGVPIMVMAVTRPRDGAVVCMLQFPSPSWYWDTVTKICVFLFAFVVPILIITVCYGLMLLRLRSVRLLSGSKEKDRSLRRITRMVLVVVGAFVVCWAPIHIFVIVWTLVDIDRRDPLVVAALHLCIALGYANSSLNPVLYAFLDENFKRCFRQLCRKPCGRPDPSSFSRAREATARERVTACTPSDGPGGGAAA

Question: For `CCN(CC)C(=O)c1ccc([C@H](c2cccc(N)c2)N2C[C@@H](C)N(Cc3ccc(F)cc3)C[C@@H]2C)cc1` [AZD2327], which proconvulsant effects ([1]; ref [8]) is on record?
Answer: proconvulsant effects

Question: Which “affinity and potency at δOR stronger than for µOR and κOR (selectivity)” value (δOR [2]; δOR over µOR and κOR) does the source give for `COc1cccc(C=NNC(=O)c2cc(-c3cccs3)n[nH]2)c1O` [Compound 1, N’-(2-hydroxy-3-methoxybenzylidene)-3-(2-thienyl)-1H-pyrazole-5-carbohydrazide] here?
Answer: roughly 10 fold

Question: And the Ki (δOR [2]; δOR, read-out: Affinity (pKi ± SEM) (converted))?
Answer: 1.15 µM

Question: What about the Ki (µOR [3]) of the same molecule?
Answer: > 10 µM

Question: What about the Ki (κOR [4]) of the same molecule?
Answer: > 10 µM

Question: What about the IC50 (δOR [5]; [15]) of the same molecule?
Answer: 1 µM

Question: What about the IC50 (δOR [5]; δOR, read-out: cAMP Potency (pIC50 ± SEM) (converted)) of the same molecule?
Answer: 0.977 µM

Question: And the IC50 (µOR [6])?
Answer: > 10 µM

Question: And the IC50 (κOR [7])?
Answer: > 10 µM

Question: And the EC50 (δOR [8])?
Answer: > 10 µM

Question: What about the EC50 (δOR [9]) of the same molecule?
Answer: > 10 µM

Question: What about the “modulation of Leu-enkephalin activity in cAMP glosensor assay” value (δOR [10]; Leu-enkephalin co-incubated with 0.1-10 µM compound 1) of the same molecule?
Answer: negative allosteric modulator (NAM)-agonist

Question: And the “β (change in Leu-enkephalin Emax)” value (δOR [10]; Leu-enkephalin co-incubated with increasing concentrations of compound 1)?
Answer: 1

Question: With `O=C(N/N=C/c1ccccc1)c1cc(-c2cccs2)n[nH]1` [Compound 2] as the molecule, how does the IC50 (δOR [5]; [15]) read?
Answer: 12.6 µM

Question: For `Cc1cccc(/C=N/NC(=O)c2cc(-c3cccs3)n[nH]2)c1` [Compound 3], which IC50 (δOR [5]; [15]) is on record?
Answer: 7.94 µM

Question: Which IC50 (δOR [5]; [15]) does the source give for `O=C(N/N=C/c1ccc(Cl)cc1)c1cc(-c2cccs2)n[nH]1` [Compound 4] here?
Answer: 12.6 µM

Question: With `CCOc1cccc(/C=N/NC(=O)c2cc(-c3ccco3)n[nH]2)c1O` [Compound 5] as the molecule, how does the IC50 (δOR [5]; [15]) read?
Answer: 10 µM

Question: Which IC50 (δOR [5]; [15]) does the source give for `O=C(N/N=C/c1ccc(O)c(O)c1)c1cc(-c2cccs2)n[nH]1` [Compound 6] here?
Answer: 12.6 µM

Question: Which IC50 (δOR [5]; [15]) does the source give for `COc1cc(/C=N/NC(=O)c2cc(-c3cccs3)n[nH]2)cc(OC)c1OC` [Compound 8] here?
Answer: 10 µM

Question: Which IC50 (δOR [5]; [15]) does the source give for `COc1cccc(/C=N/NC(=O)c2cc(-c3cccs3)n[nH]2)c1` [Compound 9] here?
Answer: 15.8 µM

Question: For `CCOc1cccc(/C=N/NC(=O)c2cc(-c3ccc(Cl)s3)n[nH]2)c1O` [Compound 10], which IC50 (δOR [5]; [15]) is on record?
Answer: 7.94 µM

Question: For `COc1ccc(/C=N/NC(=O)c2cc(-c3ccc(C)s3)n[nH]2)cc1OC` [Compound 11], which IC50 (δOR [5]; [15]) is on record?
Answer: 3.98 µM

Question: Which IC50 (δOR [5]; [15]) does the source give for `COc1cccc(/C=N/NC(=O)c2cc(-c3ccco3)n[nH]2)c1O` [Compound 12] here?
Answer: 7.94 µM

Question: Which IC50 (δOR [5]; [15]) does the source give for `COc1cccc(/C=N/NC(=O)c2cc(-c3ccc(Cl)s3)n[nH]2)c1O` [Compound 13] here?
Answer: 7.94 µM

Question: With `COc1cccc(/C=N/NC(=O)c2cc(-c3ccc(Br)s3)n[nH]2)c1O` [Compound 14] as the molecule, how does the IC50 (δOR [5]; [15]) read?
Answer: 10 µM

Question: For `COc1cc(/C=N/NC(=O)c2cc(-c3ccc(C)s3)n[nH]2)ccc1O` [Compound 15], which IC50 (δOR [5]; [15]) is on record?
Answer: 10 µM

Question: For `CN1CCC23Cc4nc5ccccc5cc4CC2(O)C1Cc1ccc(O)cc13` (stereo not drawn) [KNT-127], which “Emax for β-arrestin 2 recruitment” value (δOR [11]) is on record?
Answer: 70%

Question: What about the convulsions ([1]; ref [14],[18],[19]) of the same molecule?
Answer: do not induce convulsions

Question: Which proconvulsant effects ([1]; ref [17]) does the source give for `CN(C)C(=O)c1ccc(C(=C2CCN(Cc3cncs3)CC2)c2cccc(C(N)=O)c2)cc1` [PN6047] here?
Answer: not proconvulsant

Question: For `C[C@H](Cc1cccs1)NC(=O)NC[C@H](Cc1ccc(O)cc1)N(C)C` [PZM21], which Ki (µOR [12]) is on record?
Answer: 0.001 µM

Question: With `CN1CCC2(c3cccc(O)c3)Cc3nc4ccccc4cc3CC2C1` (stereo not drawn) [TAN-67] as the molecule, how does the “Emax for β-arrestin 2 recruitment” value (δOR [11]) read?
Answer: 30%

Question: Which Ki (κOR [13]) does the source give for `CC(c1cccc(O)c1)N(C)CCc1nccn1C` (stereo not drawn) [compound 81] here?
Answer: 0.16 µM

Question: What about the EC50 (κOR [14]) of the same molecule?
Answer: 0.53 µM
